“Also recorded” adds a separate entry of the source.
B1: annexin V: recombinant label-free Annexin-V (#ab157342, Abcam) masking cell surface phosphatidylserine (protein, UniProt P08758 2-320, looked up)
Annexin A5: AQVLRGTVTDFPGFDERADAETLRKAMKGLGTDEESILTLLTSRSNAQRQEISAAFKTLFGRDLLDDLKSELTGKFEKLIVALMKPSRLYDAYELKHALKGAGTNEKVLTEIIASRTPEELRAIKQVYEEEYGSSLEDDVVGDTSGYYQRMLVVLLQANRDPDAGIDEAQVEQDAQALFQAGELKWGTDEEKFITIFGTRSVSHLRKVFDKYMTISGFQIEETIDRETSGNLEQLLLAVVKSIRSIPAYLAETLYYAMKGAGTDDHTLIRVMVSRSEIDLFNIRKEFRKNFATSLYSMIKGDTSGDYKKALLLLCGEDD

Key:
[1] = test system: KPC3 syngeneic pancreatic tumor grafts; assay: Treatment of orthotopic syngeneic KPC3 pancreatic tumors with oral ANO6 inhibitors; format: in vivo, C57Bl/6J mice; conditions: oral gavage 5 days/week for 3 weeks; niclosamide 150 mg/kg, clofazimine 50 mg/kg; vs vehicle, p<0.001
Method: (§1) Syngeneic 5×10^5 KPC3 cells were orthotopically injected to the tail of pancreas of anesthetized C57Bl/6J mice. Treatment with ANO6 inhibitors niclosamide or clofazimine commenced on 2 days post-implantation: niclosamide (150 mg/kg of mouse body weight, Cayman #10649), clofazimine (50 mg/kg, MedChem Express), or corn oil (50 mg/kg, Sigma #C8267) as vehicle were given by oral gavages 5 days/week for 3 weeks. Mice were kept under defined-flora pathogen-free conditions. Mice of both genders, equally distributed, were used for the experiments.

DsRed-tagged KPC3 tumors = assay: In vivo fluorescent LDL (BODIPY-cholesterol) imaging by multiphoton microscopy; set-up: species or system mice
Method: as §1

[2] = test system: KPCN349 cells co-cultured with CAFs; assay: Trogocytosis assay in vitro by flow cytometry (CAF membrane uptake by PDAC cells); format: cell-based, murine; conditions: 100 nM, CAFs pre-treated 2 hours and maintained in co-culture, vs vehicle, p<0.05
Method: To label cellular membranes, pairs of lipophilic fluorescent dyes were used according to the manufacturer's instructions in the following combinations: 1) adherent CAFs were stained 1 μM PKH67 (Sigma-Aldrich), Panc-1 were stained in suspension with 10 μM CellTracker™ orange CMTMR (Thermo Fisher Scientific); 2) CAFs labeled with 0.5 μM BODIPY-cholesterol (Topfluor Cholesterol, #DO-016545, Avanti Polar Lipids) dissolved in 0.1 mM methyl-b-cyclodextrin (#C4555, Sigma) with 2 μM cholesterol (#C8667, Sigma-Aldrich) in MEM media at 37° C. for 30 minutes in suspension; murine or human (Panc-1) PDAC cells were stained in suspension with CPD670 (#65-0840-85, Thermo Fisher Scientific). After labeling, CAFs were co-incubated for indicated time intervals with PDAC cells in 12-well culture plates at ratio of 2:1 in half DMEM media. Co-cultures of CAFs and PDAC cells for 3 minutes on ice were used as negative controls. In experiments assessing the effect of extracellular calcium on trogocytoisis, cells were co-cultured in Phosphate Buffered Saline (PBS) containing calcium and magnesium (D8662, Sigma-Aldrich) or in PBS without calcium and magnesium (D8537, Sigma-Aldrich). After co-cultures, cells were collected and pelleted by centrifugation (5 minutes, 1500 rpm), resuspended in 10% formalin (Sigma) for 10 minutes at RT, washed and re-suspended in PBS/1% BSA. Trogocytosis was measured as the acquisition of CAF-specific fluorescence in PDAC cells by flow cytometry on MACSQuant® VYB Flow Cytometer (Miltenyi Biotec) or FACScan analyzer (BD Biosciences). Analysis of dual staining was done using FlowJo software (10.8.1, BD Biosciences). Live cells were gated based on FSC/SSC parameters, then single cells were gated based on SSC-A/SSC-H.
For interference with trogocytosis, CAFs were pre-treated prior to co-cultures for 2 hours with recombinant label-free 100 nM Annexin-V (#ab157342, Abcam) or 100 nM Zn-DPA (Molecular Targeting Technologies) and subsequently maintained in co-cultures at the same concentrations.

| Molecule | weights of orthotopic syngeneic pancreatic tumors [1] | accumulation of intratumoral vesicles containing BODIPY-cholesterol (DsRed-tagged KPC3 tumors; 19 hours post injection, niclosamide vs vehicle) | accumulation of BODIPY-cholesterol from intravenously administered LDL in DsRed-tagged KPC3 cancer cells (intratumoral to peri-tumoral fluorescence) (DsRed-tagged KPC3 tumors; niclosamide 150 mg/kg/day, 10, 16 and 19 hours post injection, vehicle tumors showed 6-fold enrichment at 16 hours) | uptake of BODIPY-labeled CAF membranes by KPCN349 cells [2] | uptake of BODIPY-labeled CAF membranes by KPCN349 cells ([2]; listed as bis-Zn-dipicolylamine) |
| --- | --- | --- | --- | --- | --- |
| CC(C)/N=c1\cc2n(-c3ccc(Cl)cc3)c3ccccc3nc-2cc1Nc1ccc(Cl)cc1 [clofazimine] | significant reduction of tumor weights | – | – | – | – |
| O=C(Nc1ccc([N+](=O)[O-])cc1Cl)c1cc(Cl)ccc1O [niclosamide] | significant reduction of tumor weights | dramatically reduced | suppressed accumulation | – | – |
| [Zn].c1ccc(CNCc2ccccn2)nc1 [Zn-DPA, zinc-dipicolylamine] | – | – | – | significantly reduced the uptake | antagonizes uptake |
| B1 | – | – | – | significantly reduced the uptake; also recorded: antagonizes uptake | – |

Source: US20240122922A1, “Methods Of Treating Cancer With Transmembrane Protein 16F (TMEM16F) Inhibitors” (Institute For Cancer Research d/b/a The Research Institute …, priority 2022, published 2024)
